The source of these data is patent US20120329865A1, “MOLECULES RELATED hERG ION [sequence] AND THE USE THEREOF” (priority 2009, published 2012).

Series [1] addresses T1, hERG ion channels (Homo sapiens, UniProt Q12809). Description: Label-free biosensor hERG modulator classification from profiles in HT29, HEK-hERG and HEK293 cells plus mallotoxin modulation. As to conditions: label-free biosensor cellular assays. A general note: hERG is a cardiac potassium channel; its block is linked to QT prolongation.
Source text: (§1) Label-free RWG biosensor cellular assays were developed to directly assaying the activation and its subsequent signaling of hERG channels without applying voltages to the cells. […] Generally, the disclosed methods to characterize modulators acting directly through hERG ion channel, or indirectly via hERG-associated signaling complexes are related to label-free biosensor cellular assays. Disclosed is the use of three types of cells: a cancerous cell line endogenously expressing hERG ion channels, a native cell line without endogenous hERG channels and its engineered cell line overexpressing hERG channels, for characterizing hERG modulators. Also disclosed is the use of mallotoxin or other hERG activator as a readout to further confirm the modes of action of hERG modulators.
(§2) In a specific approach, any compound can be profiled in three different types of cells, HT29, HEK-hERG, and HEK-293 cells, in both agonism and antagonism modes. The human colon cancerous cell line HT-29 is known to endogenously express hERG channels. HEK293 is a native cell line without endogenously expressed hERG channels, while HEK-hERG is an engineered HEK293 cell having stably expressed hERG channels.
Series [2] addresses T1, hERG ion channels. Description: Label-free RWG biosensor (Epic) DMR assay, agonism mode, HT29 cells endogenously expressing hERG. As to conditions: 10 micromolar.
Source text: (§3) Using the RWG biosensor Corning® Epic® system, all compounds were systematically characterized for their ability to modulate hERG ion channels in live cells. The Epic® system consists of a temperature-control unit, an optical detection unit, with an on-board liquid handling unit with robotics, or an external liquid accessory system with robotics. The detection unit is centered on integrated fiber optics, and enables kinetic measures of cellular responses with a time interval of ˜7 or 15 sec. The compound solutions were introduced by using either the on-board liquid handling unit, or the external liquid accessory system; both of which use conventional pippetting system.
(§4) Epic® wavelength interrogation system (Corning Inc., Corning, N.Y.) was used for whole cell sensing. This system consists of a temperature-control unit, an optical detection unit, and an on-board liquid handling unit with robotics. The detection unit is centered on integrated fiber optics, and enables kinetic measures of cellular responses with a time interval of ˜15 sec.
(§5) Cells were plated in 384-well Epic® cell culture treated plate (Corning Cat#5040) 16-20 hours before assay (15000 cells/well for HEK293 and HEK-hERG cells, 30000 cells/well for HT29 cells). For both HEK-hERG and its parental HEK293 cells, each well was coated with 10 μl 5 μg/ml fibronectin. One hour before assay, cells were washed twice on a BioTek ELx405 Select washer with Hank's Balanced Salt Solution (HBSS) containing 20 mM Hepes. Cells were incubated in 40 μl/well HBSS at 28° C. inside the Epic system for one hour. For each assay, a 2-min baseline was initiated, followed by addition of 10 μl compound solutions (5×) and the cell responses were recorded continuously for one hour.
(§6) All studies were carried out at a controlled temperature (28° C.). At least two independent sets of experiments, each with at least three replicates, were performed. […] All dose-dependent responses were analyzed using non-linear regression method with the GraphPad Prism 5.
as §2
For series [3], the target named is T1, hERG ion channels. Description: Label-free RWG biosensor (Epic) DMR assay, agonism mode, HEK-hERG cells stably expressing hERG. Conditions: 10 micromolar.
Source text: as §3, §4, §5, §6, §2
In series [4] the target is T1, hERG ion channels. Description: DMR antagonism mode: modulation of the mallotoxin DMR signal in HEK-hERG cells.
For series [5], the target named is T1, hERG ion channels.
Source text: as §1, §2
Series [6] deals with T1, hERG ion channels. Description: DMR antagonism mode: modulation of the mallotoxin DMR signal in HT29 cells.
Series [7] concerns the target T1, hERG ion channels. Description: Rb+ flux assay using HEK-hERG cells. Conditions: 5 mM KCl, modulators at 10 or 50 micromolar (FIG. 3).
Procedure: Briefly, 50,000 cells per well were plated in 96-well tissue culture treated plates 20 hours before assay. In the next day, cells were incubated with complete cell culture medium containing 5 mM RbCl for 3 hours at 37° C. with 5% CO2. Then compounds (10×) diluted in HBSS were added into the cell culture medium and cells were incubated at 37° C. with 5% CO2 for another hour. Cells were washed twice with Rb^+ free cell culture medium and incubated with 180 μl/well of cell culture medium containing different concentration of KCl for exactly 10 minutes. The supernatant from each well was transferred to a new 96 well plate immediately. Cells were lysed with 180 μl/well 0.5% Triton100 in HBSS. The Rb^+ concentration of each sample was determined by ICR8000 (Aurora Biomed Inc.).
[8] abbreviates: molecule 10 micromolar, mallotoxin 16 micromolar, antagonism assay.
[9] abbreviates: score assigned from % modulation of mallotoxin DMR (10% = 1).

Like-named read-outs stand apart in the source and are kept apart here.

T1 sequence (Q12809 whole entry): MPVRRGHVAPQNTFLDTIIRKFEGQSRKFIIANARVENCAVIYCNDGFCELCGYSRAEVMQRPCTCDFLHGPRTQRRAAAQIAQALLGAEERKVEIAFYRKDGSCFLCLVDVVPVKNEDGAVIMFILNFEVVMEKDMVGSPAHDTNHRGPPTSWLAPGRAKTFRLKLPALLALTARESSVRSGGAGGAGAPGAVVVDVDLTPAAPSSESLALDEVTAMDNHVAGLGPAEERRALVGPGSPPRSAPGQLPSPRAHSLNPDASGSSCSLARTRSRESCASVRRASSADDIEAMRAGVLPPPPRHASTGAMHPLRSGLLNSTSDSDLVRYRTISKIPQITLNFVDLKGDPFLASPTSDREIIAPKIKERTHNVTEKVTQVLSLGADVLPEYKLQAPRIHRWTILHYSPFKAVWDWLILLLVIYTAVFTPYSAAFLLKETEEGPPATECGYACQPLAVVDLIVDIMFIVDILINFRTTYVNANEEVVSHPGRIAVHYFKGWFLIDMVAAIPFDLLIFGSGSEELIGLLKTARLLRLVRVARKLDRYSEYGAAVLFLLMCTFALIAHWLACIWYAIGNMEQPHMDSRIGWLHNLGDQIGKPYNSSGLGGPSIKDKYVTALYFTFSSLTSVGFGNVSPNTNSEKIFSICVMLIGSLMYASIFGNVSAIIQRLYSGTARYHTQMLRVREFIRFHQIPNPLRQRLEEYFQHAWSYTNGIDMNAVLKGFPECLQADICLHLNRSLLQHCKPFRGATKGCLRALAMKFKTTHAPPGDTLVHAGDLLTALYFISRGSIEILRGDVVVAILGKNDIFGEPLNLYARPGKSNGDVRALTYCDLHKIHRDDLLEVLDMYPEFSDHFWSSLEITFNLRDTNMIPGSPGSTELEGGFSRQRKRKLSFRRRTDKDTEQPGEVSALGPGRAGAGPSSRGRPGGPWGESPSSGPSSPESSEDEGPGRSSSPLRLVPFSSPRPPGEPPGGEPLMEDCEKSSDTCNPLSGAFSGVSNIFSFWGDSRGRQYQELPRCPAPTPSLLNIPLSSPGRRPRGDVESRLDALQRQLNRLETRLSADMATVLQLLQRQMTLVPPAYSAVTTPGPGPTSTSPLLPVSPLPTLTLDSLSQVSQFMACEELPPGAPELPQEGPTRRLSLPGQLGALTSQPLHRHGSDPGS

For the compound `O=C(Nc1cc(C(F)(F)F)ccc1O)Nc1cc(C(F)(F)F)ccc1O` [NS1643], the “class of hERG modulator assigned” value in series [1] is “label-free biosensor hERG activators”.
For the compound `CC1=C(C#N)C(=C(C#N)C#N)OC1(c1ccccc1)C(F)(F)F` (stereo not shown) [Compound B, 2-dicyanomethylene-3-cyano-4-methyl-5-phenyl-5-perfluoromethyl-2,5-dihydrofuran], in series [2], the “DMR signal in HT29 cells” value is listed as “robust DMR signals”. In addition, in series [3], the “DMR signal in HEK-hERG cells” value is listed as “robust DMR signals”. In series [4] (setting [8]), the “effect on the mallotoxin DMR signal in HEK-hERG cells (in words)” value is listed as “desensitization”. In series [5], the “class of hERG modulator assigned” value was “potent label-free biosensor hERG activator”. Also, in series [6] (setting [8]), the “effect on the mallotoxin DMR signal in HT29 cells (in words)” value was “desensitization”.
Take `CN(CCO)c1ccc(/C=C/C2=C(C#N)C(=C(C#N)C#N)OC2(C)c2c(F)c(F)c(F)c(F)c2F)cc1` (stereo not shown) [J]: the “class of hERG modulator assigned” value in series [5] was “label-free biosensor hERG activator”.
With `CC1=C(C#N)C(=C(C#N)C#N)OC1(C)c1ccc(Cl)c(Cl)c1` (stereo not shown) [Compound F, 2-dicyanomethylene-3-cyano-4,5-dimethyl-5-[3′,4′-dichlorophenyl]-2,5-dihydrofuran], the “class of hERG modulator assigned” value in series [5] is given as “label-free biosensor hERG activator”.
With `CC1=C(C#N)C(=C(C#N)C#N)OC1(C)c1ccc(Cl)c(Cl)c1Cl` (stereo not shown) [H], the “class of hERG modulator assigned” value in series [5] is “label-free biosensor hERG activator”.
Still for that read-out and setting: to `N#CC(C#N)=Cc1ccc([N+](=O)[O-])c(O)c1` [AG126, reference compound] belongs “hERG pathway activator”.
Regarding `CN(CCOc1ccc(NS(C)(=O)=O)cc1)CCc1ccc(NS(C)(=O)=O)cc1` [dofetilide], the “Rb+ flux signal” value in series [7] is reported as “suppression”.
Regarding `COc1ccc2nccc(C(=O)CC[C@@H]3CCN(CC#Cc4cc(F)cc(F)c4F)C[C@@H]3C(=O)O)c2c1` [RPR260243, reference compound], in series [5], the “class of hERG modulator assigned” value is reported as “label-free biosensor hERG activators”.
Same read-out and setting: the value for `O=C(O)CC1CCC(c2ccc(-c3cc(C(F)(F)F)[nH]n3)cc2)CC1` (stereo not shown) [Compound A-935142, reference compound] was “label-free biosensor hERG activators”.
On to `CC(=O)c1c(O)c(C)c(O)c(Cc2c(O)c3c(c(C(=O)/C=C/c4ccccc4)c2O)OC(C)(C)C=C3)c1O` [mallotoxin], for which the “Rb+ flux signal” value in series [7] was “significant increase”. The “class of hERG modulator assigned” value in series [1] was “label free biosensor hERG activator”.
`CC1=C/C(=C/C=C/C2=C(C#N)C(=C(C#N)C#N)OC2(C)c2ccc(C3CCCCC3)cc2)CC(C)(C)C1` (stereo not shown) [Compound I]: in series [5], the “class of hERG modulator assigned” value is “label-free biosensor hERG activator”.
As to `O=C(O)c1cc(-c2ccc(F)cc2F)ccc1O` [diflunisal, reference compound], the “score of modulation index, HEK-hERG coordinate” value in series [4] (setting [9]) worked out at 1. Moreover, the “score of modulation index, HT29 coordinate” value in series [6] (setting [9]) is −9.
As for `CC1=C(C#N)C(=C(C#N)C#N)OC1(C)c1ccc(F)cc1` (stereo not shown) [C], in series [5], the “class of hERG modulator assigned” value is reported as “label-free biosensor hERG activator”.
Still for that read-out and setting: to `O=C(O)c1cccnc1Nc1ccc2c(c1)CN(c1ccc(Cl)c(Cl)c1)C2` [PD-307243, reference compound] belongs “label-free biosensor hERG activators”; to `CC1=C(C#N)C(=C(C#N)C#N)OC1(C)C` [A], “label-free biosensor hERG activator”; to `O=C(O)c1ccccc1Nc1ccc(CCc2ccc(Cl)c(Cl)c2)cc1` [PD-118057, reference compound], “label-free biosensor hERG activators”.
